Laboratory results taken from patent US20230247994A1, “HETEROCYCLENE DERIVATIVES AS PEST CONTROL AGENTS” (Bayer Aktiengesellschaft, priority 2020, published 2023).

Columns and labels:
Diabrotica balteata = Diabrotica balteata spray test (germinated wheat grains); type: in vivo; conditions: 168 h, application rate 100 g/ha (=32 μg/cavity), after 7 days, beetle larvae on wheat, 100% = all wheat plants grown as in untreated, uninfected control, read-out: efficacy in %
Source text: Diabrotica Balteata—Spray Test Solvent: 78 parts by weight of acetone • • 1.5 parts by weight of dimethylformamide Emulsifier: alkylaryl polyglycol ether An appropriate active ingredient formulation is produced by dissolving 1 part by weight of active ingredient with the stated parts by weight of solvent and making the solution up to the desired concentration with water containing an emulsifier concentration of 1000 ppm. Further test concentrations are produced by diluting the formulation with emulsifier-containing water. Pre-swollen wheat grains (Triticum aestivum) are incubated in a multiwell plate filled with agar and a little water for one day (5 seed grains per cavity). The germinated wheat grains are sprayed with an active ingredient formulation of the desired concentration. Subsequently, each cavity is infected with 10-20 beetle larvae of Diabrotica balteata. After 7 days, efficacy in % is determined. 100% means that all wheat plants have grown as in the untreated, uninfected control; 0% means that no wheat plant has grown.

Spodoptera frugiperda = Spodoptera frugiperda spray test (maize leaf disks); type: in vivo; conditions: foliar, 168 h, application rate 100 g/ha, caterpillars, after 7 days, 100% = all caterpillars killed, read-out: efficacy in %
Source text: Spodoptera frugiuerda—Spray Test
Solvent: 78.0 parts by weight of acetone • • 1.5 parts by weight of dimethylformamide
Emulsifier: alkylaryl polyglycol ether
An appropriate active ingredient formulation is produced by dissolving 1 part by weight of active ingredient with the stated parts by weight of solvent and making the solution up to the desired concentration with water containing an emulsifier concentration of 1000 ppm. Further test concentrations are produced by diluting the formulation with emulsifier-containing water.
Leaf disks of maize (Zea mays) are sprayed with an active ingredient formulation of the desired concentration and, after drying, populated with caterpillars of the fall armyworm (Spodopterafrugiperda).
After 7 days, efficacy in % is determined. 100% means that all of the caterpillars have been killed; 0% means that none of the caterpillars have been killed.

**Q.** CCS(=O)(=O)c1c(-c2nc3cc4c(cc3n2C)OC(F)(F)C(F)(F)O4)nc(-c2cccc(Br)c2)n1C [Example I-12, 2-[2-(3-Bromophenyl)-5-(ethylsulfonyl)-1-methyl-1H-imidazol-4-yl]-6,6,7,7-tetrafluoro-1-methyl-6,7-dihydro-1H-[1,4]dioxino[2,3-f]benzimidazole] was tested. Which pest or weed control at 100 g/ha (Diabrotica balteata) did it give?
**A.** 100%

**Q.** And the pest or weed control at 100 g/ha (Spodoptera frugiperda)?
**A.** 100%

**Q.** Which results are given for CCS(=O)(=O)c1c(-c2nc3cc4c(cc3n2C)OC(F)(F)C(F)(F)O4)nc(-c2ccc(F)cc2)n1C [Example I-5, 2-[5-(Ethylsulfonyl)-2-(4-fluorophenyl)-1-methyl-1H-imidazol-4-yl]-6,6,7,7-tetrafluoro-1-methyl-6,7-dihydro-1H-[1,4]dioxino[2,3-f]benzimidazole]?
**A.** pest or weed control at 100 g/ha (Diabrotica balteata): 100%; pest or weed control at 100 g/ha (Spodoptera frugiperda): 100%

**Q.** With CCS(=N)(=O)c1c(-c2nc3cc4c(cc3n2C)OC(F)(F)C(F)(F)O4)nc(-c2ccc(C3(C#N)CC3)cc2)n1C (centres unmarked) [Example I-39] as the compound, how does the pest or weed control at 100 g/ha (Spodoptera frugiperda) read?
**A.** 100%

**Q.** Which pest or weed control at 100 g/ha (Diabrotica balteata) does the source give for CCS(=O)(=O)c1c(-c2nc3cc4c(cc3[nH]2)OC(F)(F)C(F)(F)O4)nc(Br)n1C [Example I-2, 2-[2-Bromo-5-(ethylsulfonyl)-1-methyl-1H-imidazol-4-yl]-6,6,7,7-tetrafluoro-6,7-dihydro-1H-[1,4]dioxino[2,3-f]benzimidazole] here?
**A.** 100%

**Q.** What about the pest or weed control at 100 g/ha (Spodoptera frugiperda) of the same compound?
**A.** 100%

**Q.** Which pest or weed control at 100 g/ha (Diabrotica balteata) does the source give for CCS(=O)(=O)c1c(-c2nc3cc4c(cc3n2C)OC(F)(F)C(F)(F)O4)nc(-c2ccc(C3(C(F)(F)F)CC3)cc2)n1C [Example I-7, 2-[5-(Ethylsulfonyl)-1-methyl-2-{4-[1-(trifluoromethyl)cyclopropyl]phenyl}-1H-imidazol-4-yl]-6,6,7,7-tetrafluoro-1-methyl-6,7-dihydro-1H-[1,4]dioxino[2,3-f]benzimidazole] here?
**A.** 100%

**Q.** How did the pest or weed control at 100 g/ha (Spodoptera frugiperda) turn out when CCS(=O)(=O)c1c(-c2nc3cc4c(cc3n2C)OC(F)(F)C(F)(F)O4)nc(-c2ccc(-c3ccc(Br)cn3)cn2)n1C [Example I-25] was run?
**A.** 100%

**Q.** Which pest or weed control at 100 g/ha (Spodoptera frugiperda) does the source give for CCS(=O)(=O)c1c(-c2nc3cc4c(cc3n2C)OC(F)(F)C(F)(F)O4)nc(-c2ccc(Cl)cn2)n1C [Example I-31, 2-[2-(5-Chloropyridin-2-yl)-5-(ethylsulfonyl)-1-methyl-1H-imidazol-4-yl]-6,6,7,7-tetrafluoro-1-methyl-6,7-dihydro-1H-[1,4]dioxino[2,3-f]benzimidazole] here?
**A.** 100%

**Q.** What does the source list for CCS(=O)(=O)c1c(-c2nc3cc4c(cc3n2C)OC(F)(F)C(F)(F)O4)nc(-c2cccc(Cl)c2)n1C [Example I-13, 2-[2-(3-Chlorophenyl)-5-(ethylsulfonyl)-1-methyl-1H-imidazol-4-yl]-6,6,7,7-tetrafluoro-1-methyl-6,7-dihydro-1H-[1,4]dioxino[2,3-f]benzimidazole]?
**A.** pest or weed control at 100 g/ha (Diabrotica balteata): 100%; pest or weed control at 100 g/ha (Spodoptera frugiperda): 100%

**Q.** Which pest or weed control at 100 g/ha (Diabrotica balteata) does the source give for CCS(=O)(=O)c1c(-c2nc3cc4c(cc3n2C)OC(F)(F)C(F)(F)O4)nc(-c2ccc(C#N)cn2)n1C [Example I-32, 6-[5-(Ethylsulfonyl)-1-methyl-4-(6,6,7,7-tetrafluoro-1-methyl-6,7-dihydro-1H-[1,4]dioxino[2,3-f]benzimidazol-2-yl)-1H-imidazol-2-yl]nicotinonitrile] here?
**A.** 100%

**Q.** What about the pest or weed control at 100 g/ha (Spodoptera frugiperda) of the same compound?
**A.** 100%
